{"source": "patent US20080113032A1", "about": "“Scalp Desensitizing Formulation” (BMM PowerMoves, LLC, priority 2001, published 2008)", "key": {"[1]": {"assay": "Recrystallization of benzocaine from the formulation after cooling to room temperature", "assay_type": "physicochemical", "description": "The formulation is prepared by first mixing the topical anesthetic, solubilizer, homopolymers and copolymers together and heating the mixture at about 80° C. while stirring. The perfume oil, skin conditioning oils and water or a thickening agent, depending on the type of composition desired, can be added after dissolution of all of the above components being heated has occurred.\nThis overall recrystallization problem is easily remedied by reheating the mixture either in a hot water bath or briefly in a microwave oven (<10 seconds). […] This is an improvement over the known art.\nThe following components were dissolved by stirring while heating in a water bath at 80° C. All of the following protocols are actual experiments developed for the production of the formulation.\nAfter the above components were dissolved, the following components were added to the resulting solution while still heating.\nThe solution was then cooled to room temperature."}, "scalp or skin": {"tested_on": "scalp or skin", "assay": "Desensitization of the scalp or skin, pain relief in hair treatment and manipulation procedures", "assay_type": "in vivo", "conditions": "benzocaine concentration approximately 20 to 30 weight percent of the formulation"}}, "data": [{"molecule": "CCOC(=O)c1ccc(N)cc1", "note": "[benzocaine, ethyl-p-aminobenzoate]", "values": [{"measurement": "recrystallization", "setting": "[1]; about 20 weight percent benzocaine, after 24 hours", "result": "very small amount of recrystallization may be observed"}, {"measurement": "benzocaine staying in solution", "setting": "[1]; about 20 weight percent benzocaine, formulation cooled to room temperature", "result": "stays in solution"}, {"measurement": "re-solubility of the reheated mixture", "setting": "[1]; about 22 to about 30 weight percent benzocaine, reheated in hot water bath or microwave oven (<10 seconds)", "result": "Total re-solubility is achieved"}, {"measurement": "precipitation in the mixture", "setting": "[1]; about 22 to about 30 weight percent benzocaine, several hours after cooling to room temperature", "result": "some precipitation is observed"}, {"measurement": "relief of pain associated with hair treatment and manipulation procedures", "setting": "scalp or skin", "result": "effective at relieving the pain"}]}]}
